Structures are written as SMILES. Like-named read-outs stand apart in the source and are kept apart here.

Format in all cases: cell-based
The target in assay [1] is T1, A431 (EGFR_WT) (Homo sapiens, UniProt P00533).
T1 construct: endogenous in cells; host or cells: A431, NCI-H2073, NCI-H292
Put plainly: EGFR degradation assay (western blot), A431 cells. The essentials:
(§1)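 Cells seeded overnight, then exposed to compounds for 24 h; lysates run on western blot, EGFR probed with tubulin loading control and fluorescent secondary detection. DC50 = concentration giving 50% EGFR degradation.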

Assay [2] has as its system BaF3_DTC (EGFR_Exon19del/T790M/C797S). Put plainly: EGFR degradation assay (western blot), BaF3_DTC cells. In short, it runs like this: as §1
For assay [3], the target named is T2, BaF3_ASV (EGFR_A776inASV) (Homo sapiens, UniProt P00533, DUP767-769).
T2 construct: expressed in transfected cells; host or cells: Ba/F3 (engineered)
T2 sequence (P00533 with tags, fused parts or gaps DUP767-769): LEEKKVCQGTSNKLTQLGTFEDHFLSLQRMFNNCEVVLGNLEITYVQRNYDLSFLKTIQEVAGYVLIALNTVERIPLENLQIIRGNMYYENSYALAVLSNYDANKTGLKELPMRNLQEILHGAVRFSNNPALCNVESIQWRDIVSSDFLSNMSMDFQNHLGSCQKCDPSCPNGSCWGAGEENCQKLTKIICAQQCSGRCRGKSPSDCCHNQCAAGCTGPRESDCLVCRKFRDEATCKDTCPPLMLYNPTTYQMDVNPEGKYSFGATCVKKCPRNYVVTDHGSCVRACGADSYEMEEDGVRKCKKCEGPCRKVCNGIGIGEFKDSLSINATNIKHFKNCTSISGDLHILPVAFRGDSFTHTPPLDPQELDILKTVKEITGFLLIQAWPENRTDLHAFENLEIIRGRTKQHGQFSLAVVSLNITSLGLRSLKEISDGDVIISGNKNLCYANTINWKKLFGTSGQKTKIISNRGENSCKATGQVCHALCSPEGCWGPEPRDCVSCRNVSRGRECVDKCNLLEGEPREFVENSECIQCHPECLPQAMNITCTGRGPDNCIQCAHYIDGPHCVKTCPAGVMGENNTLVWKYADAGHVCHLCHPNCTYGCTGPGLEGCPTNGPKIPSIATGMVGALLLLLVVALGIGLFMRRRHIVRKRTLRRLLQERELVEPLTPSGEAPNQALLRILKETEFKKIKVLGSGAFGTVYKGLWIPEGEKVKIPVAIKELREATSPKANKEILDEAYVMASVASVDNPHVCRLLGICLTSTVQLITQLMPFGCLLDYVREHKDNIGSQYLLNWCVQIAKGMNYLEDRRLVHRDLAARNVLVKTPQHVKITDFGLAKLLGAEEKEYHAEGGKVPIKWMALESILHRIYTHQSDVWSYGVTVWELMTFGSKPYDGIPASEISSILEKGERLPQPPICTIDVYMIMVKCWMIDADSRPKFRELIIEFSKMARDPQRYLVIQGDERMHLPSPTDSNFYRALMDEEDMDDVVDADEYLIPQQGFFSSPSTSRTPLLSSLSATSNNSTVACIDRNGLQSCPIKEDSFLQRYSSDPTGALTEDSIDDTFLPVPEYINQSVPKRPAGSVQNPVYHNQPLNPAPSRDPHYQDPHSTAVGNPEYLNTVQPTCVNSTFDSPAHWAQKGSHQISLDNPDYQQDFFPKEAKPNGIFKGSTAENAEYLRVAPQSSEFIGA
Put plainly: EGFR degradation assay (western blot), BaF3_ASV cells. The following applies: for DC50: BaF3_ASV cells. In short, it runs like this:
as §1
For orientation: In western blotting, separated proteins are transferred to a membrane and probed.

Assay [4] concerns the target T3, BaF3_YVAM (Her2_A775insYVAM) (Homo sapiens, UniProt P04626, INS775YVMA).
T3 construct: expressed in transfected cells; host or cells: Ba/F3 (engineered)
Put plainly: EGFR degradation assay (western blot), BaF3_YVAM cells. The procedure:
(§2) A431 (EGFR_WT), NCl-H2073 (EGFR_WT), NCl-H292 (EGFR_WT), BaF3_YVAM (Her2_A775insYVAM), BaF3_SVD (EGFR_D770insSVD), BaF3_ASV (EGFR_A776inASV), or BaF3_DTC (EGFR_Exon19del/T790M/C797S) cells were seeded in a 24-well plate at a density of 4×10^5 cells per well for EGFR WT cells and 8× cells per well for EGFR or Her2 mutant cells, and the plates were incubated overnight. The cells were treated with the desired compounds for 24 h. The culture medium was removed, and 100 μL of RIPA buffer (Beyotime, P0013B) containing 1% Protease Inhibitor Cocktail (Bimake, B14001), 1% Phosphatase Inhibitor Cocktail 2 (Sigma, P5726), and 1% Phosphatase Inhibitor Cocktail 3 (Sigma, P0044) were added to lyse the cells. Then, the cell lysates were transferred to 1.5 mL microcentrifuge tubes and centrifuged at 12,000 rpm and 4° C. for 30 min. The supernatants were transferred into new tubes, and the protein concentration was determined using the BCA protein quantification method. All samples were diluted to the same concentration using RIPA buffer, loading buffer was added, samples were denatured, and 15 μg of protein per lane was loaded onto a SurePAGE 4-20% Bis-Tris gel. Samples were separated via electrophoresis in MOPS running buffer at 180 V for 100 min. Then, proteins were transferred onto PVDF membranes using the MiniBlot™ Electrophoretic Transfer Cell Device (Beyotime, E6050). The membrane was blocked using block buffer (LI-COR 927-60001) to prevent non-specific binding. The membrane was incubated with primary antibodies (1:500 dilution, EGFR-CST4405, 1:2000 dilution, Tubulin-ABclonal #AC021) at 4° C. overnight. The membrane was washed three times with 1× TBST buffer for 15 min each. The membrane was incubated with secondary antibodies IRDye 680RD Goat anti-Rabbit IgG Secondary Antibody (1:2000 dilution, LI-COR 926-68071) and IRDye 800CW Goat anti-Mouse IgG Secondary Antibody (1:2000 dilution, LI-COR 926-32210). […] Fluorescence was detected using the Odyssey CLx Imaging System, and the data were analyzed with Empiria Studio Software and GraphPad Prism 9. […]

Assay [5] concerns the target T4, NCl-H2073 (EGFR_WT) (Homo sapiens, UniProt P00533).
T4 construct: endogenous in cells; host or cells: A431, NCI-H2073, NCI-H292
Put plainly: EGFR degradation assay (western blot), NCl-H2073 cells. To be noted: Table 5; NCI-H2073 cells (EGFR_WT), 24 h. The procedure:
as §2, with “min.” for “min. Then, proteins were transferred onto PVDF membranes using the MiniBlot™ Electrophoretic Transfer Cell Device (Beyotime, E6050). The membrane was blocked using block buffer (LI-COR 927-60001) to prevent non-specific binding. The membrane was incubated with primary antibodies (1:500 dilution, EGFR-CST4405, 1:2000 dilution, Tubulin-ABclonal #AC021) at 4° C. overnight. The membrane was washed three times with 1× TBST buffer for 15 min each. The membrane was incubated with secondary antibodies IRDye 680RD Goat anti-Rabbit IgG Secondary Antibody (1:2000 dilution, LI-COR 926-68071) and IRDye 800CW Goat anti-Mouse IgG Secondary Antibody (1:2000 dilution, LI-COR 926-32210).”

Assay [6] has as its target T5, NCl-H292 (EGFR_WT) (Homo sapiens, UniProt P00533).
T5 construct: endogenous in cells; host or cells: A431, NCI-H2073, NCI-H292
Put plainly: EGFR degradation assay (western blot), NCl-H292 cells. The following applies: Table 5; NCI-H292 cells (EGFR_WT), 24 h. The procedure:
as §2, with “min.” for “min. Then, proteins were transferred onto PVDF membranes using the MiniBlot™ Electrophoretic Transfer Cell Device (Beyotime, E6050). The membrane was blocked using block buffer (LI-COR 927-60001) to prevent non-specific binding. The membrane was incubated with primary antibodies (1:500 dilution, EGFR-CST4405, 1:2000 dilution, Tubulin-ABclonal #AC021) at 4° C. overnight. The membrane was washed three times with 1× TBST buffer for 15 min each. The membrane was incubated with secondary antibodies IRDye 680RD Goat anti-Rabbit IgG Secondary Antibody (1:2000 dilution, LI-COR 926-68071) and IRDye 800CW Goat anti-Mouse IgG Secondary Antibody (1:2000 dilution, LI-COR 926-32210).”

Assay [7] has as its system BaF3_DTC. Put plainly: Cell growth inhibition assay (CellTiter-Glo), BaF3_DTC.
The subject of assay [8] is BaF3_ASV. Put plainly: Cell growth inhibition assay (CellTiter-Glo), BaF3_ASV. To be noted: for GI50: BaF3_ASV cells. On the technique in general: ATP-based viability assays read luminescence as a measure of living cells.
Assay [9] has as its system NCI-H292. Put plainly: Cell growth inhibition assay (CellTiter-Glo), NCI-H292. The following applies: Homo sapiens; Table 7; NCI-H292 cells; head prints 24 h. As for the experimental part: Cells were seeded in a 96-well plate (Corning 3610) with 90 μL of culture medium per well, and plates were incubated at 37° C. overnight. A 1,000× DMSO stock solution of the desired compound was prepared the following day. A compound dilution plate was prepared by diluting the stock solution 1:100 in the corresponding cell culture medium, 10 μL of the diluted compound solution was added to each 96-well plate well containing the seeded cells. […] The content of the wells was mixed by shaking continuously for 10 min, and luminescence was measured using Envision (PerkinElmer). The data were analyzed with GraphPad Prism 9 (see FIG. 50).
Table 6, Table 7, and Table 8 list the cell growth inhibition results, where Gls0 represents the compound concentration to cause 50% cell growth inhibition in comparison with DMSO.

Where [10] appears, read: BaF3_ASV, comparison with Compound A, in words.

T3 sequence (P04626 with tags, fused parts or gaps INS775YVMA): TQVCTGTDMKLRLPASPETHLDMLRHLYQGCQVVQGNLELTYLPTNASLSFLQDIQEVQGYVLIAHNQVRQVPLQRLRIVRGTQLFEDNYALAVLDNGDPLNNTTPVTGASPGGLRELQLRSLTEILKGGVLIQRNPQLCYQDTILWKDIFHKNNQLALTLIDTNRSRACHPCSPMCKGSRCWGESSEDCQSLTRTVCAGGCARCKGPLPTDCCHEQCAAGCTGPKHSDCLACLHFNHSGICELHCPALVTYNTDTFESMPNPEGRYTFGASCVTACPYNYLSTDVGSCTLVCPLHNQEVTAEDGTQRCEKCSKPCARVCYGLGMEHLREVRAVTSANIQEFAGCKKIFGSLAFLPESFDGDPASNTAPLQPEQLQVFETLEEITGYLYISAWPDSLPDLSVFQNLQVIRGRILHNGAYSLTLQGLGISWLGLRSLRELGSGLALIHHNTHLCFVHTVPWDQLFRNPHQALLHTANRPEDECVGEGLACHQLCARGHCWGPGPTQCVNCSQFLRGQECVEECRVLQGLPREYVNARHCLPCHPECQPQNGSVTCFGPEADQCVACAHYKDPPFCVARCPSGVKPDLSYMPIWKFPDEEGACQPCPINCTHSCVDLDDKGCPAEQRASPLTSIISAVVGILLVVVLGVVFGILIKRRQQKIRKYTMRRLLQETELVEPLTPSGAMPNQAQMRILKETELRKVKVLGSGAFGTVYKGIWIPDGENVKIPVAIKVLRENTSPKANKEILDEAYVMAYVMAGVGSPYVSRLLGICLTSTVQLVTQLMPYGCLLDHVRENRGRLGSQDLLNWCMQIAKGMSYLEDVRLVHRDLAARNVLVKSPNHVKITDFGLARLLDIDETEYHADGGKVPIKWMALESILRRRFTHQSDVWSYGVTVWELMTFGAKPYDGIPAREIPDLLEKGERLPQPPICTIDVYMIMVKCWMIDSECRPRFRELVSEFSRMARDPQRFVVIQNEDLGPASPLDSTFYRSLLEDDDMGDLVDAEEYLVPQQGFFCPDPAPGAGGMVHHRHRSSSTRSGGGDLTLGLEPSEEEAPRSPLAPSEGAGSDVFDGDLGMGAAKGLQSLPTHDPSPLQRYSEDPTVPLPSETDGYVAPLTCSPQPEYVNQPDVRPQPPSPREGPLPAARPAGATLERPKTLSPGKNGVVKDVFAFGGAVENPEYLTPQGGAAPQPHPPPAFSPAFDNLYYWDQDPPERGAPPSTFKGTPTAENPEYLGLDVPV
T1 sequence (P00533 25-1210): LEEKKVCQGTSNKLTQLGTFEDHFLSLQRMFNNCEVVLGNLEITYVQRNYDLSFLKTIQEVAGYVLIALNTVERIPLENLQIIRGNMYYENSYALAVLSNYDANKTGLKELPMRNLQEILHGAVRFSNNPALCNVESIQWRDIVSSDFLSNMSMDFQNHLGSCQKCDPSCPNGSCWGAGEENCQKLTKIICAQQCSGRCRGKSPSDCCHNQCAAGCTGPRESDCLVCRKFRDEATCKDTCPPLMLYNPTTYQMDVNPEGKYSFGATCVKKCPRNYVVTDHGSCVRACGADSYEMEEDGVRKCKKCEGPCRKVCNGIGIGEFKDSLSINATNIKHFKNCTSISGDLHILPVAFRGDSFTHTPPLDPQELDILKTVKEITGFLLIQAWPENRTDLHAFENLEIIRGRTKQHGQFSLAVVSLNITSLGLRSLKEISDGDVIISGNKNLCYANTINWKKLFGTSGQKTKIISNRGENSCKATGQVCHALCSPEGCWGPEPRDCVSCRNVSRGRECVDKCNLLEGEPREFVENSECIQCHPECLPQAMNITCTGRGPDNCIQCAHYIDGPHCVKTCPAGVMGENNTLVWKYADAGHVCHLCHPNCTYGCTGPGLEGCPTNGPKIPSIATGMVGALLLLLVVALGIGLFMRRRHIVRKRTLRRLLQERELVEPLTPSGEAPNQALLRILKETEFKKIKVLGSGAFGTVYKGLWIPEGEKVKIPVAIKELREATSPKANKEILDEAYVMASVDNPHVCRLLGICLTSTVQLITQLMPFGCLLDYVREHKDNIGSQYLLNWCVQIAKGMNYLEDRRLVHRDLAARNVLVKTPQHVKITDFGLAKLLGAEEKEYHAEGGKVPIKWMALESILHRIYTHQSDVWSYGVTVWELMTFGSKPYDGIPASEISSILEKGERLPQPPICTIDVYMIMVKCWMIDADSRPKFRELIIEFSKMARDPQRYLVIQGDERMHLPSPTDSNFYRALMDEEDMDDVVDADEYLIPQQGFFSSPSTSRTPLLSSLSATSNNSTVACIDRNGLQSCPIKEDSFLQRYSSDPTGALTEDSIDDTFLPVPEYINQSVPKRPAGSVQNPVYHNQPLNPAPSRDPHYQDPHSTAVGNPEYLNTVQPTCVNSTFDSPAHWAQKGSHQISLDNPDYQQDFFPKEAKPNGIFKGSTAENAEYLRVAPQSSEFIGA
T4 sequence (P00533 25-1210): as above

On to `CCc1cc(Nc2ncc(Br)c(Nc3ccc4nccnc4c3NS(C)(=O)=O)n2)c(OC)cc1N1CCC(N2CCN(CCc3cccc4c3n(CC)c(=O)n4C3CCC(=O)NC3=O)CC2)CC1` (centres unmarked) [Compound 11, N-(6-((5-bromo-2-((4-(4-(4-(2-(1-(2,6-dioxopiperidin-3-yl)-3-ethyl-2-oxo-2,3-dihydro-1H-benzo[d]imidazol-4-yl)ethyl)piperazin-1-yl)piperidin-1-yl)-5-ethyl-2-methoxyphenyl)amino)pyrimidin-4-yl)amino)quinoxalin-5-yl)methanesulfonamide], for which the DC50 in assay [1] (Table 5, 24 h, read-out: DC50 (nM), 24 h, A431) is more than 1000 nM; in assay [1] (compounds 24 h, western blot, read-out: A431 DC50), more than 1000 nM; in assay [2] (BaF3_DTC cells (EGFR_Exon19del/T790M/C797S), compounds 24 h, western blot, read-out: BaF3_DTC DC50), 1.2 nM; in [2] (Table 5, BaF3_Del19/T790M/C797S cells, 24 h, read-out: DC50 (nM), 24 h, BaF3_Del19/T790M/C797S), 1.2 nM; in assay [3] (compounds 24 h, western blot, read-out: BaF3_ASV DC50), 22.4 nM; in assay [3] (Table 5, 24 h, read-out: DC50 (nM), 24 h, BaF3_ASV) it was 22.4 nM. Further, the DC50 in assay [4] (Table 5, BaF3_YVMA cells (mutant Her2), 24 h) is 33.3 nM; in [5], more than 1000 nM; in [6], more than 1000 nM. Also, the “Potency in degrading EGFR exon20 insertion mutant form compared with Compound A (BaF3_ASV)” value in assay [3] (setting [10]) was “significantly increased potency”. For the same compound, in assay [4] (BaF3_YVMA, comparison with Compound A, in words), the “Potency in degrading Her2 mutant form compared with Compound A (BaF3_YVMA)” value is reported as “significantly increased potency”. Further, the GI50 was found to be 6.37 nM in assay [7] (72 h, Table 6, BaF3_DTC cells, three days, CellTiter-Glo, read-out: BaF3_DTC GI50); 6.37 nM in [7] (Table 7, BaF3_Del19/T790M/C797S cells, head prints 24 h, read-out: GI50 (nM), 24 h, BaF3_Del19/T790M/C797S); 75.2 nM in assay [8] (72 h, Table 6, three days, CellTiter-Glo, read-out: BaF3_ASV GI50); 75.2 nM in assay [8] (Table 7, head prints 24 h, read-out: GI50 (nM), 24 h, BaF3_ASV); 436 nM in assay [9]. The “Potency in cell growth inhibition compared with Compound A (BaF3_ASV)” value in assay [8] (setting [10]) is recorded as “significantly increased potency”.

(Values after patent US20250002473A1, “QUINOXALINE DERIVED SULFONAMIDES WITH EGFR DEGRADATION ACTIVITIES AND THEIR USES THEREOF” (Accutar Biotechnology Inc., priority 2023, published 2025).)
